# Results published in patent US20090053302A1, “CANCER TREATMENTS” (priority 2006, published 2009).
# Assays:
# [1] = not given; remark: listed apart in the source
# [2] = Phase I-II study of Lipoplatin combined with gemcitabine: toxicity, DLT, MTD; type: in vivo, human; settings: combined with Lipoplatin 100 mg/m2, every two weeks
# Description: Patients and Methods: The gemcitabine dose was kept standard at 1000 mg/m2 and the lipoplatin dose was escalated from 25 mg/m2 to 125 mg/m2. The treatment was administered to advanced pretreated pancreatic cancer patients who were refractory to previous chemotherapy which included gemcitabine.
# Gemcitabine was given as a 60 min i.v. infusion in 500 ml normal saline on days 1 and 15 at a dose of 1000 mg/m2 and cycles were repeated every 4 weeks (28 days). The infusions on days 1 and 15 were considered to be 1 cycle. […] Prophylactic administration of recombinant human granulocyte colony-stimulating factor (rhG-CSF) was not allowed. In cases of grade 3 neutropenia, these patients would receive subsequent infusions of pegfilgrastim 6 mg, on the 6th or 7th day and treatment would be postponed for one week. Treatment was administered for at least three cycles or until disease progression. The study was a phase I/II cohort, dose escalation trial of Lipoplatin® and gemcitabine. Its aims were to determine the dose limiting toxicity (DLT) of the combination and to define the maximum tolerated dose (MTD) as a recommended dose for phase II and to collect preliminary data on the efficacy of the drug in pretreated patients with pancreatic cancer. […]
# [3] = Total platinum in rat plasma after i.p. injection (pharmacokinetics, atomic absorption); settings: female, Wistar, in vivo, ip, 15 mg/kg
# Description: For pharmacokinetic studies 20 Wistar female rats, 2-3 months of age were used of an average body weight of 150 g. […] Two animals per time point were used. […] Blood was collected in heparinized Eppendorf tubes and was centrifuged. Total platinum levels in plasma was determined using furnace Atomic Absorption (AA700 Perkin Elmer).
# At various time points postinjection blood was drawn, plasma was isolated and total platinum levels were measured for pharmacokinetic studies.
# This was calculated by linear regression analysis of the logarithmic plasma concentration-time curve by the formula Kel=[Ln(Cp1)−Ln(Cp2)]/(t2−t1) where t1 and t2 are the starting and ending time points of measurements and Cp1 and Cp2 the starting and ending concentrations of total platinum in plasma for t1 and t2, respectively.
# This was calculated by the formula: t½=0.693 (1/Kel). 1/Kel is the mean residence time (MRT), the statistical moment analogy to half-life t½ (Gibaldi et al, 1982).
# [4] = system: human breast cancers in mice; assay: Human breast cancer xenografts in mice, intravenous injections; settings: 6 intravenous injections with 4 days intervals; Lipoxal 16 mg/Kg, oxaliplatin at its MTD
# [5] = Toxicity of i.v. doses in mice
# [6] = rats i.p., 15 mg/Kg (estimation) (Lipoplatin 30, cisplatin 5 mg/Kg)
# [7] = rats i.p., Lipoplatin 30, cisplatin 5 mg/Kg
# [8] = female, Wistar, rat, in vivo, ip, 15 mg/kg
smiles,measurement,setting,value
"N.N.[Cl][Pt][Cl] [cisplatin, cis-PtCl2(NH3)2]",maximum tolerated dose,rats i.p.,5 mg/kg
same,total platinum in liver from 24 to 150 h,[1]; rats i.p. 5 mg/Kg,1
same,time at which the liver level is attained,"[1]; rats i.p., 15 mg/Kg (cisplatin 5 mg/Kg)",20 min
same,"total platinum, Heart, 5 h",[1]; [6],0.2 mg Pt/g tissue
same,"total platinum, Kidney, 5 h",[1]; [6],6.8 mg Pt/g tissue
same,"total platinum, Liver, 5 h",[1]; [6],2.4 mg Pt/g tissue
same,"total platinum, Lung, 5 h",[1]; [6],0.7 mg Pt/g tissue
same,"total platinum, Spleen, 5 h",[1]; [6],1.2 mg Pt/g tissue
same,"total platinum, Brain, 5-7 days",[1]; [7],0 mg Pt/g tissue
same,"total platinum, Brain, 5 h",[1]; [7],0.1 mg Pt/g tissue
same,"total platinum, Brain, maximum (7-20 min)",[1]; [7],0.3 mg Pt/g tissue
Nc1ccn([C@@H]2O[C@H](CO)[C@@H](O)C2(F)F)c(=O)n1 [gemcitabine],MTD of gemcitabine in the combination,[2],1000 mg/m2
"O=C1[O][Pt]2([NH]C3CCCCC3[NH2+]2)[O]C1=O [oxaliplatin, cis-[(1R,2 R)-1,2-cyclohexanediamine-N,N][oxalato(2-)-O,O] platinum]",time post-injection at which total platinum in plasma reaches zero,[3],~100 h
same,final body weight at 7 days (150 g before study),15 mg/Kg i.p.,109 g
same,weight loss of total body weight during 7 days,15 mg/kg i.p.,over 40 gr
same,Weight of total animal organ: Heart,"15 mg/kg i.p., 7.8 or 7 days",0.523 g
same,Weight of total animal organ: Kidney,"15 mg/kg i.p., 7.8 or 7 days",0.475 g
same,Weight of total animal organ: Lung,"15 mg/kg i.p., 7.8 or 7 days",0.934 g
same,Weight of total animal organ: Spleen,"15 mg/kg i.p., 7.8 or 7 days",0.188 g
same,weight loss,"30 mg/Kg i.p., 7 days post-treatment",33%
same,average weight after 7 days (from 150 g),"30 mg/Kg i.p., day 7",100 g
same,hepatic toxicity / nephrotoxicity,rats i.p.,absence of nephrotoxicity
same,effect on human breast cancers in mice,[4],"only cause shrinkage, not disappearance"
same,outcome of mice injected with 5 mg/Kg,[5]; 5 mg/Kg,died of toxicity
same,MTD,"[5]; mouse, in vivo",4 mg/kg
same,"Kel, kidney",[1]; [8],0.002 h⁻¹
same,time at which the early spleen maximum is reached,[1]; [8],15 to 20 min
same,"Cl, kidney","[1]; rat, in vivo, ip, 15 mg/kg",0.01 h⁻¹
